Data taken from US20230323293A1, “EXPANSION CULTURE MEDIUM AND CULTURE METHOD FOR NEURAL CELLS” (INSTITUTE OF ZOOLOGY, CHINESE ACADEMY OF SCIENCES, priority 2020, published 2023).

Columns and labels:
NSCs = assay: Proliferation of neural stem cells; assay type: cell-based, human; conditions: 10 μM, P4 to P6
Procedure: The differentiation method was referred to Tchieu et al., A Modular Platform for Differentiation of Human PSCs into All Major Ectodermal Lineages. 2017, Cell Stem Cell 21, 399-410.
NSCs were cultured with expansion medium after adherence, DMEM/F12 (1×, Gibco) supplemented with […] human (EGF) (R&D), […] (bFGF) (R&D), 5 μg/ml Heparin (Sigma), 2% B27 (Gibco), 1× GlutaMAX, and 10 μM Blebbistatin was added to the experimental group. Half of the culture medium was changed every day.

GABA progenitor cells = assay: Proliferation of GABA progenitor cells; assay type: cell-based, human; conditions: 10 μM, P4 to P5, versus control group
Procedure: (1) hESCs were cultured and differentiation was conducted until about 80% confluence. On the 0th day, the cells were dissociated with Dispase (1 U/mL), and the bottom cell mass was harvested and spread on an ultra-low adsorption 10 cm culture dish.
(2) From the 1st day, the neural induction was started by using NIM medium supplemented with 100 nM LDN193189, 10 μM SB431542, and 2 μM XAV939. […]

microglial progenitors = assay: Proliferation of microglial progenitors; assay type: cell-based; conditions: 10 μM
Procedure: • (1) On the 0th day, ESCs were digested with Accutase into single cells, counted and inoculated into a V-bottom 96-well plate at a concentration of 10,000/well, and cultured statically. • (2) From the 0th to 4th day, the medium was microglial induction medium: DMEM/F12, 20% KOSR, 1× Glutamax, 1×NEAA, 50 ng/ml BMP4, 50 ng/ml VEGF, 20 ng/ml SCF, 10 μM Y-27632. • (3) On the 4th day, the suspended EBs were subjected to adherent culture in a 6-well plate, the culture medium was changed on the 4th day and then the static culture was carried out until the 11th day. From the 4th to 11th day, the culture medium was microglial differentiation medium: X-VIVO15, 1× Glutamax, 25 ng/ml IL-34, 50 ng/ml M-CSF. At this stage, Blebbistatin was added at a concentration of 10 μM. • (4) On the 11th day, the single cells suspended in the medium were collected and counted, and the EBs were continued to be cultured with the microglial differentiation medium, and the suspended cells in the supernatant were collected every 7 days for a total of 3 collections. • (5) Maturation of microglial cells: The supernatant was discarded after centrifugation, the cells were resuspended in a microglial maturation medium and inoculated on Matrigel pre-coated culture plates. The microglial cells matured after being continuously cultured for 14 days. […]

astrocytes = assay: Expansion experiment of astrocytes; assay type: cell-based, human; conditions: 10 μM, P2 to P6, versus control group
Procedure: (1) hESCs were cultured and differentiation was conducted until about 80% confluence. On the 0th day, the cells were dissociated with Dispase (1 U/mL), and the bottom cell mass was harvested and plated in an ultra-low adsorption 10 cm culture dish. • (2) From the 1st day, the neural induction was started by replacing with NIM medium supplemented with neural induction molecules 100 nM LDN193189 and 10 μM SB431542. […]

## Cc1ccc2c(c1)C(=O)[C@]1(O)CCN(c3ccccc3)C1=N2 [Blebbistatin, (S)-(−)-Blebbistatin]
NSCs
  expansion of NSCs: significantly promoted the expansion of NSCs
GABA progenitor cells
  expansion ability of GABA progenitor cells: significantly improved
Microglial progenitors
  proliferation of microglial progenitors and differentiation efficiency: could promote the proliferation of microglial progenitors and improve the differentiation efficiency
Microglial progenitors; first two collections, versus control group
  number of suspension cells collected: increased significantly
astrocytes
  expansion ability of astrocytes: significantly improved
